From patent US8877770B2, “Polymorph of rifaximin and process for the preparation thereof” (Clarochem Ireland Limited, priority 2011, dated 2014)
Entries after “also recorded” stand apart in the source; their conditions may differ.

Tests used:
[1] = Stability testing following conditioning in a humid atmosphere (80% RH, 24 hours); format: physicochemical; conditions: 80% relative humidity
Experimental: Stability testing of the polymorph of Rifaximin following conditioning in a humid atmosphere.
Two samples of the polymorphic form κ of Rifaximin: 63/11A, which was obtained by means of the procedure of example 4, and 69/11B, which was obtained by means of the procedure of example 1, were maintained for 24 hours in an environment of relative humidity equal to 80%. At the end of the conditioning, an increase of approximately 3%, ascribable to the adsorption of water from the environment, was recorded.

[2] = Exposure at room temperature to variable relative humidity for 12 days and to RH 80% for 5 months; format: physicochemical
Description: The polymorph obtained with the procedure described in example 2 was exposed at room temperature to variable relative humidity for a time period of 12 days, and then for a period of 5 months. When the humidity was increased, there were increases in the mass as shown in Table 2 for 12 days and Table 3 for 5 months.

SMILES: CO[C@H]1/C=C/O[C@@]2(C)Oc3c(C)c(O)c4c(O)c(c5c(nc6cc(C)ccn65)c4c3C2=O)NC(=O)/C(C)=C\C=C\[C@H](C)[C@H](O)[C@@H](C)[C@@H](O)[C@@H](C)[C@H](OC(C)=O)[C@@H]1C [polymorph κ, (2S,16Z,18E,20S,21S,22R,23R,24R,25S,26S,27S,28E)-5,6,21,23,25-pentahydroxy-27-methoxy-2,4,11,16,20,22,24,26-octamethyl-2,7-(epoxypentadeca-[1,11,13]-trienimmino)-benzofuro-[4,5-e]-pirido-[1,2-α]-benzimidazol-1,15(2H)-dione,25-acetate]
- XRPD pattern pre/post-conditioning [1]: substantially identical to one another; also recorded: without registering significant changes in the XRPD pattern
- increase of mass of the sample (adsorption of water) [1]: about 3%
- increase of mass of the sample (adsorption of water) ([1]; listed as 63/11A): approximately 3%
- increase of mass of the sample (adsorption of water) ([1]; listed as 69/11B): approximately 3%
- % water after exposure to 80% humidity (RH 80%) ([2]; 1 month): 4.38%
- % water after exposure to 80% humidity (RH 80%) ([2]; 2 months): 4.45%
- % water after exposure to 80% humidity (RH 80%) ([2]; 5 months): 4.55%
- value at which the increase of mass becomes stable ([2]; 80% humidity, stable after 4 days, unchanged after 5 months): approximately 4.5%
- % water after exposure to 80% humidity (RH 80%) ([2]; 4 days): 4.38%
- % water after exposure to 80% humidity (RH 80%) ([2]; 7 days): 4.44%
- % water after exposure to 80% humidity (RH 80%) ([2]; 14 days): 4.37%
- % water following exposure to 80% and 45% humidity ([2]; RH 80% 4 days, total days 4): 4.66%
- DRX pattern after conditioning ([2]; RH 80%, 5 months): correspond to that one shown in FIG. 1
- nature of the water adsorption process ([2]; cycling between RH 80% and RH 45%, 12 days): superficial and reversible
- % water after exposure to 80% humidity (RH 80%) ([2]; initial): 1.85%
- % water following exposure to 80% and 45% humidity ([2]; initial, total days 0): 1.85%
- maximum adsorption ([2]; prolonged exposure to relative humidity of 80%): 4.5%
- % water following exposure to 80% and 45% humidity ([2]; then RH 45% 1 day, total days 12): 3.43%
- % water following exposure to 80% and 45% humidity ([2]; then RH 45% 3 days, total days 7): 3.40%
- % water following exposure to 80% and 45% humidity ([2]; then RH 80% 4 days, total days 11): 4.52%
